The record followed here is paper PMC12096242 (ACS Omega, 2025).

One may read the pIC50 as −log10 of the IC50, conventionally taken in molar units.

pIC50: −log10 of the molar value.

The assay addresses T1, TcGLIP (MBP-TcGLIP) (Tanacetum cinerariifolium, UniProt H6U1I8).
T1 sequence (H6U1I8 28-365): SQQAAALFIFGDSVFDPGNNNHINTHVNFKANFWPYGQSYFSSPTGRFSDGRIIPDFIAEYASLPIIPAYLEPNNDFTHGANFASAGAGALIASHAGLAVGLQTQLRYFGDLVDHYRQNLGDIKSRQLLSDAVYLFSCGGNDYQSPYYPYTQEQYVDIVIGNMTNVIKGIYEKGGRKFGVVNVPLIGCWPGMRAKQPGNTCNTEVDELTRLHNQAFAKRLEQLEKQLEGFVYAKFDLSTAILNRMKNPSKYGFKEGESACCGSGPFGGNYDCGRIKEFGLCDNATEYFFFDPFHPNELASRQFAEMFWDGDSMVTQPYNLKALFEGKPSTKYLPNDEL
As to the kind of experiment: HPLC.
On to `C/C=C\CC1=C(C)[C@@H](O[P@@](=O)(CCCCCCCC)Oc2ccc([N+](=O)[O-])cc2)CC1=O` [5a, (S)p, (S) c-2-Methyl-4-oxo-3-((Z)-2-buten-1-yl)cyclopent-2-en-1-yl 4-Nitrophenyl n-Octylphosphonate], for which the negative logarithm of the IC50 (pIC50) was 6.92.

For `C=C/C=C\CC1=C(C)[C@@H](O[P@@](=O)(CCCCCCCC)Oc2ccc([N+](=O)[O-])cc2)CC1=O` [4a], the pIC50 is 7.16.

Take `CC/C=C\CC1=C(C)[C@@H](O[P@@](=O)(CCCCCCCC)Oc2ccc([N+](=O)[O-])cc2)CC1=O` [6a, (S)p, (S)c-2-Methyl-4-oxo-3-((Z)-2-penten-1-yl)cyclopent-2-en-1-yl 4-Nitrophenyl n-Octylphosphonate]: the pIC50 was 6.51.

In the case of `C=C/C=C\CC1=C(C)[C@@H](O[P@](=O)(CCCCC)Oc2ccc([N+](=O)[O-])cc2)CC1=O` [1b], the pIC50 was 6.61.

In turn, `C/C=C\CC1=C(C)[C@@H](O[P@](=O)(CCCCCCCC)Oc2ccc([N+](=O)[O-])cc2)CC1=O` [5b, (R)p, (S)c-2-Methyl-4-oxo-3-((Z)-2-buten-1-yl)cyclopent-2-en-1-yl 4-Nitrophenyl n-Octylphosphonate] showed a pIC50 of 7.56.

The compound `CC/C=C\CC1=C(C)[C@@H](O[P@@](=O)(CCCCC)Oc2ccc([N+](=O)[O-])cc2)CC1=O` [3a, (S)p, (S)c-2-Methyl-4-oxo-3-((Z)-2-penten-1-yl)cyclopent-2-en-1-yl 4-Nitrophenyl n-Pentylphosphonate] showed a pIC50 of 7.39.

`C/C=C\CC1=C(C)[C@@H](O[P@](=O)(CCCCC)Oc2ccc([N+](=O)[O-])cc2)CC1=O` [2b, (R)p, (S)c-2-Methyl-4-oxo-3-((Z)-2-buten-1-yl)cyclopent-2-en-1-yl 4-Nitrophenyl n-Pentylphosphonate] had a pIC50 of 6.46.

`C=C/C=C\CC1=C(C)[C@@H](O[P@@](=O)(CCCCC)Oc2ccc([N+](=O)[O-])cc2)CC1=O` [1a] showed a pIC50 of 7.63.

For the compound `CC/C=C\CC1=C(C)[C@@H](O[P@](=O)(CCCCC)Oc2ccc([N+](=O)[O-])cc2)CC1=O` [3b, (R)p, (S)c-2-Methyl-4-oxo-3-((Z)-2-penten-1-yl)cyclopent-2-en-1-yl 4-Nitrophenyl n-Pentylphosphonate], the negative logarithm of the IC50 (pIC50) was 6.50.

Take `CC/C=C\CC1=C(C)[C@@H](O[P@](=O)(CCCCCCCC)Oc2ccc([N+](=O)[O-])cc2)CC1=O` [6b, (R)p, (S)c-2-Methyl-4-oxo-3-((Z)-2-penten-1-yl)cyclopent-2-en-1-yl 4-Nitrophenyl n-Octylphosphonate]: the negative-log IC50 (pIC50) was 7.42.

As to `C=C/C=C\CC1=C(C)[C@@H](O[P@](=O)(CCCCCCCC)Oc2ccc([N+](=O)[O-])cc2)CC1=O` [4b], the pIC50 was 7.85.

`C/C=C\CC1=C(C)[C@@H](O[P@@](=O)(CCCCC)Oc2ccc([N+](=O)[O-])cc2)CC1=O` [2a, (S)p, (S)c-2-Methyl-4-oxo-3-((Z)-2-buten-1-yl)cyclopent-2-en-1-yl 4-Nitrophenyl n-Pentylphosphonate] gave a negative-log IC50 (pIC50) of 7.53.
